Results published in patent US20240139349A1, “GADOLINIUM CHELATE, PREPARATION METHOD THEREFOR, AND APPLICATION THEREOF” (SUZHOU ZHECI PHARMACEUTICAL TECHNOLOGY CO., LTD., priority 2021, published 2024).
Read-outs that look alike come from different tables or passages of the source.

Experiment: In vitro MRI determination of longitudinal and transverse relaxation rates (r1, r2) of aqueous solutions
Type: physicochemical
Conditions: for r1 (longitudinal relaxation rate) / r2 (transverse relaxation rate): aqueous solutions
[1] = H0 3.0 T clinical MRI system (Philips, Ingenia)
[2] = H0 7.0 T small animal MRI system

r2/r1 (H0 3.0 T) | r1 (longitudinal relaxation rate) [2] | Compound | r1 (longitudinal relaxation rate) [1] | r2 (transverse relaxation rate) [1] | r2/r1
1.07 ± 0.03 | 3770 M⁻¹ s⁻¹ | O=C([O-])CN1CCN(CC(=O)[O-])CCN([C@H](CO)[C@H](O)CO)CCN(CC(=O)[O-])CC1.[Gd+3] (racemic) [Gadavist, Gd-BT-DO3A] | 4600 ± 90 M⁻¹ s⁻¹ | 4900 ± 40 M⁻¹ s⁻¹ | 
1.03 ± 0.03 | 3680 M⁻¹ s⁻¹ | O=C([O-])CN(CCN(CC(=O)[O-])CC(=O)O)CCN(CC(=O)[O-])CC(=O)O.[Gd+3] [Magnevist, Gd-DTPA] | 4880 ± 120 M⁻¹ s⁻¹ | 5000 ± 100 M⁻¹ s⁻¹ | 

Compound | r2/r1 (H0 3.0 T) | r1 (longitudinal relaxation rate) [2] | r1 (longitudinal relaxation rate) [1] | r2 (transverse relaxation rate) [1] | r2/r1
O=[N+]([O-])[O-].O=[N+]([O-])[O-].O=[N+]([O-])[O-].[Gd+3] [Gd(NO3)3, gadolinium nitrate] |  | 8920 M⁻¹ s⁻¹ | 11390 ± 250 M⁻¹ s⁻¹ | 12040 ± 310 M⁻¹ s⁻¹ | 1.06 ± 0.006
Gd-BSA: gadolinium chelate of bovine serum albumin | 1.72±0.02 |  | 34880 ± 1060 M⁻¹ s⁻¹ | 59920 ± 1570 M⁻¹ s⁻¹ | 
